Measurements taken from patent publication US20190175528A1, “INHIBITION OF BIOFILM ORGANISMS” (NovaBiotics Limited, priority 2009, published 2019).
Numbered stars: 1 amine (or outer) side, 2 acyl side, 3 side chain; on linkers, the order of the positions; unused ones are H or OH. Ends that are not written are not given here. Peptide text beside a SMILES is read from it. Cysteamide = C(CS[*:3])N[*:1]

Legend:
[1] = tested on: S. aureus DSM 11729 (MRSA); assay: microbe, parasite or virus in culture; type: cell-based, Staphylococcus aureus; details: DSM 11729, 24 h; for MIC pH5.5, 320 mM NaCl, S. aureus 11729 / MIC pH5.5, S. aureus 11729: pH 5.5
Procedure: (§1) The bacterial inoculum was established by the dilution method from actively-growing cultures in Mueller-Hinton broth, standardized with 0.5 McFarland turbidity standard as described in the CLSI method M26-A.
(§2) To determine the prevention of biofilm formation, both the bacterial inoculum and the antimicrobial agents were added simultaneously to the plates. The plates were incubated at 37° C. for 24 h and the optical density was read at 625 nm on a microtitre plate reader (BioTek Powerwave XS, Winooski, USA). The MIC was obtained as the lowest concentration of antimicrobial showing total inhibition of bacterial growth. […]
(§3) FIC=MICA[combination]/MICA[alone]+MICB[combination]/MICB[alone] […]
(§4) In order to assess for the prevention of biofilm formation by both Gram-positive and Gram-negative bacteria, the bacterial inoculum and antimicrobial agents were added simultaneously in the plates. The range of concentrations of antimicrobial agents was 0-500 μg/ml NP108 and 0-320 μg/ml cysteamine against the Gram-negative bacteria P. aeruginosa ATCC BAA-47 and 0-1000 μg/ml NP108 and 0-320 μg/ml cysteamine against the Gram-positive MRSA.

[2] = tested on: P. aeruginosa DSMZ1128; details: DSMZ1128, pH 7
[3] = tested on: S. epidermidis ATCC12228; details: ATCC12228, pH 7
[4] = tested on: S. aureus ATCC25923; type: cell-based, Staphylococcus aureus; details: ATCC25923, 24 h
Procedure: as §1
(§5) To determine the prevention of biofilm formation, both the bacterial inoculum and the antimicrobial agents were added simultaneously to the plates. The plates were incubated at 37° C. for 24 h and the optical density was read at 625 nm on a microtitre plate reader (BioTek Powerwave XS, Winooski, USA). The MIC was obtained as the lowest concentration of antimicrobial showing total inhibition of bacterial growth.

[5] = tested on: P. aeruginosa DSMZ1299; details: DSMZ1299, pH 7
[6] = tested on: P. aeruginosa ATCC BAA-47; assay: microbe, parasite or virus in culture; type: cell-based, Pseudomonas aeruginosa; details: ATCC BAA-47, 24 h; for MIC pH5.5, 320 mM NaCl, P. aeruginosa ATCCBAA-47 / MIC pH5.5, P. aeruginosa ATCCBAA-47: pH 5.5
Procedure: as §1, §2, §3, §4

[7] = tested on: P. aeruginosa DSMZ1128; type: cell-based, Pseudomonas aeruginosa; details: DSMZ1128, 24 h
Procedure: as §1, §5

[8] = tested on: P. aeruginosa DSMZ1299; type: cell-based, Pseudomonas aeruginosa; details: for MIC at pH 7, P. aeruginosa D5MZ1299: DSMZ1299, 24 h
Procedure: as §1, §5

[9] = tested on: S. aureus ATCC25923; details: ATCC25923, pH 7
[10] = tested on: S. epidermidis ATCC12228; type: cell-based, Staphylococcus epidermidis; details: ATCC12228, 24 h
Procedure: as §1, §5

[11] = tested on: P. aeruginosa ATCC BAA-47; details: for MBC at pH5.5, P. aeruginosa ATCCBAA-47 / MBC pH5.5, 320 mM NaCl, P. aeruginosa ATCCBAA-47: ATCC BAA-47, pH 5.5; for MBC following MIC at pH 7, P. aeruginosa ATCCBAA-47: ATCC BAA-47, pH 7
[12] = tested on: S. aureus DSM 11729 (MRSA); details: for MBC at pH5.5, S. aureus 11729 / MBC pH5.5, 320 mM NaCl, S. aureus 11729: DSM 11729, pH 5.5; for MBC following MIC at pH 7, S. aureus DSMZ11729: DSM 11729, pH 7

HHPRRKPRRPKRRHH [NP441, HHPRRKPRRPKRRHH]
MIC pH5.5, 320 mM NaCl, S. aureus 11729 [1]: >500 μg/ml
MIC pH5.5, S. aureus 11729 [1]: >500 μg/ml
MIC at pH 7, S. aureus DSMZ11729 [1]: >500 μg/ml
MBC following MIC at pH 7, P. aeruginosa DSMZ1128 [2]: >500 μg/ml
MBC following MIC at pH 7, S. epidermidis ATCC12228 [3]: >500 μg/ml
MIC at pH 7, S. aureus ATCC25923 [4]: >500 μg/ml
MBC following MIC at pH 7, P. aeruginosa DSMZ1299 [5]: >500 μg/ml
MIC pH5.5, 320 mM NaCl, P. aeruginosa ATCCBAA-47 [6]: >500 μg/ml
MIC pH5.5, P. aeruginosa ATCCBAA-47 [6]: >500 μg/ml
MIC at pH 7, P. aeruginosa ATCCBAA-47 [6]: >500 μg/ml
MIC at pH 7, P. aeruginosa DSMZ1128 [7]: >500 μg/ml
MIC at pH 7, P. aeruginosa D5MZ1299 [8]: >500 μg/ml
Exp#3, P. aeruginosa DSMZ1299 (quantity not clearly headed) [8]: >500 µg/mL
MBC following MIC at pH 7, S. aureus ATCC25923 [9]: >500 μg/ml
MIC at pH 7, S. epidermidis ATCC12228 [10]: >500 μg/ml
MBC at pH5.5, P. aeruginosa ATCCBAA-47 [11]: >500 μg/ml
MBC pH5.5, 320 mM NaCl, P. aeruginosa ATCCBAA-47 [11]: >500 μg/ml
MBC following MIC at pH 7, P. aeruginosa ATCCBAA-47 [11]: >500 μg/ml
MBC at pH5.5, S. aureus 11729 [12]: >500 μg/ml
MBC pH5.5, 320 mM NaCl, S. aureus 11729 [12]: >500 μg/ml
MBC following MIC at pH 7, S. aureus DSMZ11729 [12]: >500 μg/ml

KKFPWRLRLRYGRR [NP445, KKFPWRLRLRYGRR]
MIC pH5.5, 320 mM NaCl, S. aureus 11729 [1]: >500 μg/ml
MIC pH5.5, S. aureus 11729 [1]: >500 μg/ml
MIC at pH 7, S. aureus DSMZ11729 [1]: 500 μg/ml
MBC following MIC at pH 7, P. aeruginosa DSMZ1128 [2]: 250 μg/ml
MBC following MIC at pH 7, S. epidermidis ATCC12228 [3]: 62.5 μg/ml
MIC at pH 7, S. aureus ATCC25923 [4]: 500 μg/ml
MBC following MIC at pH 7, P. aeruginosa DSMZ1299 [5]: 125 μg/ml
MIC pH5.5, 320 mM NaCl, P. aeruginosa ATCCBAA-47 [6]: >500 μg/ml
MIC pH5.5, P. aeruginosa ATCCBAA-47 [6]: >500 μg/ml
MIC at pH 7, P. aeruginosa ATCCBAA-47 [6]: 31.25 μg/ml
MIC at pH 7, P. aeruginosa DSMZ1128 [7]: 62.5 μg/ml
MIC at pH 7, P. aeruginosa D5MZ1299 [8]: 31.25 μg/ml
MBC following MIC at pH 7, S. aureus ATCC25923 [9]: >500 μg/ml
MIC at pH 7, S. epidermidis ATCC12228 [10]: <7.8 μg/ml
MBC at pH5.5, P. aeruginosa ATCCBAA-47 [11]: >500 μg/ml
MBC pH5.5, 320 mM NaCl, P. aeruginosa ATCCBAA-47 [11]: >500 μg/ml
MBC following MIC at pH 7, P. aeruginosa ATCCBAA-47 [11]: 250 μg/ml
MBC at pH5.5, S. aureus 11729 [12]: >500 μg/ml
MBC pH5.5, 320 mM NaCl, S. aureus 11729 [12]: >500 μg/ml
MBC following MIC at pH 7, S. aureus DSMZ11729 [12]: >500 μg/ml

N=C(N)NCCC[C@H](NC(=O)[C@H](CCCCN)NC(=O)[C@@H]1CCCN1C(=O)[C@H](CCCNC(=N)N)NC(=O)[C@H](CCCNC(=N)N)NC(=O)[C@@H]1CCCN1C(=O)[C@H](CCCCN)NC(=O)[C@H](CCCNC(=N)N)NC(=O)[C@H](CCCNC(=N)N)NC(=O)[C@@H]1CCCN1C(=O)[C@H](Cc1c[nH]cn1)NC(=O)[C@@H](N)Cc1c[nH]cn1)C(=O)N[C@@H](Cc1c[nH]cn1)C(=O)N[C@@H](Cc1c[nH]cn1)C(=O)NCCS [NP451, HHPRRKPRRPKRHH-cysteamine] (H-HHPRRKPRRPKRHH-Cysteamide; N-terminus assumed)
MIC pH5.5, 320 mM NaCl, S. aureus 11729 [1]: >500 μg/ml
MIC pH5.5, S. aureus 11729 [1]: >500 μg/ml
MIC at pH 7, S. aureus DSMZ11729 [1]: 500 μg/ml
MBC following MIC at pH 7, P. aeruginosa DSMZ1128 [2]: >500 μg/ml
MBC following MIC at pH 7, S. epidermidis ATCC12228 [3]: 125 μg/ml
MIC at pH 7, S. aureus ATCC25923 [4]: 500 μg/ml
MBC following MIC at pH 7, P. aeruginosa DSMZ1299 [5]: >500 μg/ml
MIC pH5.5, 320 mM NaCl, P. aeruginosa ATCCBAA-47 [6]: >500 μg/ml
MIC pH5.5, P. aeruginosa ATCCBAA-47 [6]: >500 μg/ml
MIC at pH 7, P. aeruginosa ATCCBAA-47 [6]: >500 μg/ml
MIC at pH 7, P. aeruginosa DSMZ1128 [7]: >500 μg/ml
MIC at pH 7, P. aeruginosa D5MZ1299 [8]: >500 μg/ml
Exp#3, P. aeruginosa DSMZ1299 (quantity not clearly headed) [8]: >500 µg/mL
MBC following MIC at pH 7, S. aureus ATCC25923 [9]: >500 μg/ml
MIC at pH 7, S. epidermidis ATCC12228 [10]: 125 μg/ml
MBC at pH5.5, P. aeruginosa ATCCBAA-47 [11]: 250 μg/ml
MBC pH5.5, 320 mM NaCl, P. aeruginosa ATCCBAA-47 [11]: >500 μg/ml
MBC following MIC at pH 7, P. aeruginosa ATCCBAA-47 [11]: >500 μg/ml
MBC at pH5.5, S. aureus 11729 [12]: >500 μg/ml
MBC pH5.5, 320 mM NaCl, S. aureus 11729 [12]: >500 μg/ml
MBC following MIC at pH 7, S. aureus DSMZ11729 [12]: >500 μg/ml
